A short description of experiment [1]: Binding affinity for sigma receptor of guinea pig whole brain using [3H]-[…] radioligand.
Experiment [2] addresses D(2) dopamine receptor (guinea pig). Description: Binding affinity for dopamine D2 receptor using [3H]spiperone in guinea pig striatum.

Each structure is given as a SMILES string. Counter-ions that a name gives are not always drawn. A value given as a limit tells only on which side of the number the result lay.

As a reminder, the Ki is a dissociation constant, usually derived from enzyme kinetics or from competition with a known ligand. Low readings indicate tighter binding, high ones weaker binding. As to `O=C1c2ccccc2CCC12CCN(Cc1ccccc1)CC2`, in experiment [1], the Ki is 1 nM.
As for `O=C1c2ccccc2CCC12CCN(Cc1ccc3ccccc3c1)CC2` [1'-(2-naphthylmethyl)spiro[1,2,3,4-tetrahydronaphthalene-2,4'-(hexahydropyridine)]-1-one ;malate], the Ki was greater than 10000 nM in experiment [2] and 11 nM in experiment [1].
In experiment [1], `O=C1c2ccccc2CCC12CCN(Cc1ccc(F)cc1)CC2` [1'-(4-fluorobenzyl)spiro[1,2,3,4-tetrahydronaphthalene-2,4'-(hexahydropyridine)]-1-one; hydrochloride] yielded a Ki of 4 nM.
Still for that read-out and setting: the value for `COc1ccc(CN2CCC3(CCc4ccccc4C3=O)CC2)cc1` [1'-(4-methoxybenzyl)spiro[1,2,3,4-tetrahydronaphthalene-2,4'-(hexahydropyridine)]-1-one; hydrochloride] was 3 nM.
As for `O=C1c2ccccc2CCC12CCN(Cc1ccc([N+](=O)[O-])cc1)CC2` [1'-(4-nitrobenzyl)spiro[1,2,3,4-tetrahydronaphthalene-2,4'-(hexahydropyridine)]-1-one; hydrochloride], the inhibition constant (Ki) in experiment [2] was determined as 1970 nM; in experiment [1], 1.9 nM.
In experiment [1], `O=C1c2ccccc2CCC12CCN(Cc1ccc(C(F)(F)F)cc1)CC2` [1'-(4-trifluoromethylbenzyl)spiro[1,2,3,4-tetrahydronaphthalene-2,4'-(hexahydropyridine)]-1-one; malate] returned a Ki of 24 nM.
On to `CC(C)(C)c1ccc(CN2CCC3(CCc4ccccc4C3=O)CC2)cc1` [1'-[4-(tert-butyl)benzyl]spiro[1,2,3,4-tetrahydronaphthalene-2,4'-(hexahydropyridine)]-1-one; hydrochloride], for which the affinity in experiment [1], expressed as Ki, was 15 nM.
Turning to `O=C1c2ccccc2CCC12CCN(CC1CCCCC1)CC2` [1'-cyclohexylmethylspiro[1,2,3,4-tetrahydronaphthalene-2,4'-(hexahydropyridine)]-1-one; hydrochloride], the Ki turned out to be 1170 nM in experiment [2] and 2 nM in experiment [1].
Take `OC1CCc2ccccc2C12CCN(CCc1ccccc1)CC2` (centres undefined) [1'-phenethylspiro[1,2,3,4-tetrahydronaphthalene-1,4'-(hexahydropyridine)]-2-ol]: the Ki in experiment [2] was greater than 10000 nM.
For `O=C1CCc2ccccc2C12CCN(CCc1ccccc1)CC2` [1'-phenethylspiro[1,2,3,4-tetrahydronaphthalene-1,4'-(hexahydropyridine)]-2-one], the Ki is greater than 10000 nM in experiment [2] and 13 nM in experiment [1].
For `O=C1c2ccccc2CCC1C1CCN(Cc2ccccc2)CC1` (centres undefined) [2-(1-Benzyl-piperidin-4-yl)-3,4-dihydro-2H-naphthalen-1-one; hydrochloride] the same measures were 1000 nM and 4 nM.
On the same counts, the results for `O=C1c2ccc(F)cc2CCC1C1CCN(Cc2ccccc2)CC1` (centres undefined) [2-(1-Benzyl-piperidin-4-yl)-6-fluoro-3,4-dihydro-2H-naphthalen-1-one] are 62 nM and 9 nM.
`COc1ccc2c(c1)CCC(C1CCN(Cc3ccccc3)CC1)C2=O` (centres undefined) [2-(1-Benzyl-piperidin-4-yl)-6-methoxy-3,4-dihydro-2H-naphthalen-1-one] returned a Ki in experiment [1] of 7 nM.
`O=C1c2ccccc2CCC1C1CCN(CC2CC2)CC1` (centres undefined) [2-(1-Cyclopropylmethyl-piperidin-4-yl)-3,4-dihydro-2H-naphthalen-1-one; hydrobromide]: the Ki is 1080 nM in experiment [2] and 26 nM in experiment [1].
For `O=C1c2ccccc2CCC1C1CCN(CCc2ccccc2)CC1` (centres undefined) [2-(1-Phenethyl-piperidin-4-yl)-3,4-dihydro-2H-naphthalen-1-one; hydrobromide] the same measures were 600 nM and 10 nM.
Take `CC(C1CC1)N1CCC(C2CCc3ccccc3C2=O)CC1` (centres undefined) [2-[1-(1-Cyclopropyl-ethyl)-piperidin-4-yl]-3,4-dihydro-2H-naphthalen-1-one; hydrobromide]: the affinity in experiment [1], expressed as Ki, was 26 nM.
In the case of `O=C1c2ccccc2CCC1C1CCN(Cc2ccc(F)cc2)CC1` (centres undefined) [2-[1-(4-Fluoro-benzyl)-piperidin-4-yl]-3,4-dihydro-2H-naphthalen-1-one; hydrochloride], the figures for the Ki in experiment [2] and in experiment [1] were 61 nM and 11 nM, respectively.
Take `Cc1ccc(CN2CCC(C3CCc4ccccc4C3=O)CC2)cc1` (centres undefined) [2-[1-(4-Methyl-benzyl)-piperidin-4-yl]-3,4-dihydro-2H-naphthalen-1-one; hydrate]: the Ki in experiment [1] was found to be 8 nM.
Molecule `O=C1c2ccccc2CCC1C1CCN(Cc2ccc(C(F)(F)F)cc2)CC1` (centres undefined) [2-[1-(4-Trifluoromethyl-benzyl)-piperidin-4-yl]-3,4-dihydro-2H-naphthalen-1-one; hydrochloride] showed an inhibition constant Ki in experiment [1] of 19 nM.
Turning to `CC(C)(C)c1ccc(CN2CCC(C3CCc4ccccc4C3=O)CC2)cc1` (centres undefined) [2-[1-(4-tert-Butyl-benzyl)-piperidin-4-yl]-3,4-dihydro-2H-naphthalen-1-one], the Ki in experiment [2] amounted to 410 nM; in experiment [1] it was 26 nM.
Regarding `O=C1c2cccc(F)c2CCC1C1CCN(CCc2ccccc2)CC1` (centres undefined) [5-Fluoro-2-(1-phenethyl-piperidin-4-yl)-3,4-dihydro-2H-naphthalen-1-one; hydrochloride], the Ki in experiment [1] is 5 nM.
Still for that read-out and setting: the value for `O=C1c2ccc(Cl)cc2CCC1C1CCN(CCc2ccccc2)CC1` (centres undefined) [6-Chloro-2-(1-phenethyl-piperidin-4-yl)-3,4-dihydro-2H-naphthalen-1-one; hydrochloride] was 9 nM.
In turn, `O=C1c2ccc(F)cc2CCC1C1CCN(CCc2ccccc2)CC1` (centres undefined) [6-Fluoro-2-(1-phenethyl-piperidin-4-yl)-3,4-dihydro-2H-naphthalen-1-one] gave a Ki in experiment [2] of 344 nM.
Turning to `O=C1c2ccc(Cl)cc2CCC12CCN(CCc1ccccc1)CC2` [6-chloro-1'-phenethylspiro[1,2,3,4-tetrahydronaphthalene-2,4'-(hexahydropyridine)]-1-one], the Ki in experiment [1] was 35 nM.

These data come from BindingDB's records for doi:10.1021/jm00029a008 (Dupont Pharmaceuticals, 1994).
